# Literature values as cited in the CATMoS acute toxicity set (Mansouri et al. 2021).
# Test: rat acute oral toxicity
# Conditions: in vivo
row,Structure (SMILES),LD50 [mg/kg]
1,CNC(=O)c1cc(Cl)ccn1,500
2,CC(C)N(C(=O)SCC(Cl)=CCl)C(C)C,395
3,CCOP(=S)(OCC)SC1COCCS1 (configuration not stated),3
4,CC1(NC(N)=O)CCCC1,1200
5,C=C(Cl)C(Cl)=C(Cl)Cl,421
6,CN(C)N=Nc1ccc(Br)cc1,423
7,O=C(C(F)(F)F)C(F)(F)Cl,85
8,ClCCOCCOCCCl,250
9,C[C@@H]1CCCCN1N=O,600
10,CC(N)CSc1ccc(Cl)cc1 (configuration not stated),600
11,CCC(Cl)(Cl)Cl,7460
12,COC(OC)c1ccccc1[N+](=O)[O-],3420
13,CCSC(=O)COc1ccc(Cl)cc1C,790
14,CCC(=O)O[C@](Cc1ccccc1)(c1ccccc1)[C@H](C)CN(C)C,84
15,Cc1c[nH]c2ccccc12,3450
16,O=C(c1ccccc1)c1cccc2c1CCC2C(=O)O (configuration not stated),41.1
17,Cc1cccc(C(=O)O)c1O,445
18,C[C@H](N)Cc1ccccc1,38
19,O=C(O)c1cc(/N=N/c2ccc(S(=O)(=O)Nc3ccccn3)cc2)ccc1O,15600
20,Cn1c(=O)c2c(ncn2CCCN2CCN(CCCSc3ccccc3)CC2)n(C)c1=O,1600
21,O=C(O)CCC(=O)Nc1ccc(NS(=O)(=O)c2ccc([N+](=O)[O-])cc2)cc1,1500
22,CCCOC(=O)c1c[n+](C)c2n(c1=O)C(C)CCC2 (configuration not stated),1810
23,CNC(=O)O[C@@H]1C[C@H](C)CC[C@H]1C(C)C,250
24,CC(C)[C@]12CC(=O)[C@H](C)[C@H]1C2,500

row,Structure (SMILES),LD50 [mg/kg]
1,O=C1C=CC(=O)N1CCCCCCN1C(=O)C=CC1=O,550
2,CCOP(=O)(OCC)SC(P(=O)(OCC)OCC)(P(=O)(OCC)OCC)P(=O)(OCC)OCC,28
3,CCN(CCO)CCn1c(Cc2ccccc2)nc2c1c(=O)n(C)c(=O)n2C,1140
4,C=CCOC(=O)CC(C)C,230
5,CN(C)CCC=C1c2ccccc2CCc2ccccc21,320
6,C=C(CC)C(=O)c1ccc(OCC(=O)O)c(Cl)c1Cl,1000
7,CN(C)C(CSS(=O)(=O)c1ccccc1)CSS(=O)(=O)c1ccccc1,1100
8,ClCCOCCOCCOCCCl,180
9,CCCCCCC=NO,1040
10,CCC1CCC(CC)O1 (configuration not stated),3400
11,N=C(N)NCCC[C@H](N)C(=O)O,12000
12,Nc1c2c(nc3ccccc13)CCCC2,70
13,COP(=S)(OC)SSP(=S)(OC)OC,10000
14,CC(C)N(Cc1ccccc1)C(=O)C(C)(C)C,6000
15,CCOP(=S)(OCC)Oc1cc2ccccc2oc1=O,13
16,NC(=O)N1c2ccccc2C=Cc2ccccc21,1960
17,CN(C)C(=O)Oc1c(Cl)c(Cl)cc2[nH]c(C(F)(F)F)nc12,41
18,C=CC(=O)OCC(C)O (configuration not stated),250
19,COP(=O)(OC)OC(Br)C(Br)(Br)Br (configuration not stated),184
20,COc1ccc(-c2oc3ccc(C(=O)O)cc3c(=O)c2OC(C)C)cc1,1480
21,CCC(C)c1cc([N+](=O)[O-])cc([N+](=O)[O-])c1OC(=O)SC (configuration not stated),200
22,CCCCCCCCCCCCCCCCCC[N+](C)(C)CC(O)CCl (configuration not stated),2590
23,Nc1nnc(C=Cc2ccc([N+](=O)[O-])o2)s1,1880
24,CN(C)c1ccc(N=Nc2cccc(Br)c2)cc1,13000

row,Structure (SMILES),LD50 [mg/kg]
1,Cc1cc(N(C)C)nc(Cl)n1,1.25
2,FC(F)(F)c1nc2c(Br)c(Br)c(Cl)c(Br)c2[nH]1,8.32
3,Cc1cccc(N2CCN(CCC(O)c3ccc4c(c3)CCC(=O)N4)CC2)c1C (configuration not stated),500
4,COP(=S)(OC)SCSc1cc(Cl)cc(Cl)c1,443
5,Nc1ncnc(Nc2cccc(Cl)c2)n1,400
6,c1coc(COCc2ccco2)c1,210
7,C[C@]12CCC(=O)C=C1[C@@H]1C[C@@H]1[C@@H]1[C@@H]2CC[C@@]2(C)[C@H]1CC[C@@]2(O)CCC(=O)O,1400
8,NC(N)=NC(N)=NCc1ccccc1,481
9,O=C(OCC1(COC(=O)c2cccnc2)CCCC(COC(=O)c2cccnc2)(COC(=O)c2cccnc2)C1O)c1cccnc1,10000
10,Nc1c(/N=N/c2ccc(-c3ccc(/N=N/c4cc(S(=O)(=O)O)c5ccccc5c4N)cc3)cc2)cc(S(=O)(=O)O)c2ccccc12,15200
11,Cc1ccc(N=c2sccn2C)c(C)c1,725
12,NCCc1c[nH]c2ccccc12,300
13,CC(C)[N+](C)(CCC(C(N)=O)(c1ccccc1)c1ccccc1)C(C)C,1030
14,CCOP(=S)(OCC)SCn1nnc2ccccc2c1=O,7
15,O=C(NC(CCc1ccc2c(c1)OCO2)CCc1ccc2c(c1)OCO2)c1ccc(Cl)cc1,1800
16,OCCCCC(O)CO (configuration not stated),15500
17,CC1=C(C(=O)OCOC(=O)C(C)(C)C)N2C(=O)[C@@H](NC(=O)C(N)c3ccccc3)[C@H]2SC1 (some centres not stated),4000
18,O=C(CCCN1CCN2Cc3[nH]c4ccccc4c3CC2C1)c1ccc(F)cc1 (configuration not stated),700
19,NCCCOCCCCOCCCN,3450
20,CNC(=S)/C=C/c1ccc2c(c1)OCO2,230
21,O=c1oc2cc(O)ccc2s1,633
22,O=c1ccc2ccc3occc3c2o1,322
23,O=C1OC(CCN2CCCCC2)OC1(c1ccccc1)c1ccccc1 (configuration not stated),1500
24,COC1OC(CNC(=O)N(CCCl)N=O)C(O)C(O)C1O (configuration not stated),46.4
